How the values were obtained:
[1] = molecular target: T1, human serotonin 5-HT2A receptor (Homo sapiens, UniProt P28223); assay: radioligand competition binding, [3H]Ketanserin; settings: HEK293 membranes, [3H]Ketanserin ~1.6 nM
T1 construct: host or cells: HEK293 (ATCC CRL-1573), transient transfection, membrane preparation
Procedure: Radioligand competition binding was performed as previously described (Saraf, T. S., Felsing, D. E., Armstrong, J. L., Booth, R. G., and Canal, C. E., 2021, Evaluation of lorcaserin as an anticonvulsant in juvenile Fmr1 knockout mice, Epilepsy Res 175, 106677), with minor modifications. Plasmids encoding human serotonin 5-HT2A receptor cDNA were procured from the cDNA Resource Center. Human embryonic kidney cells (HEK293, ATCC CRL-1573) were grown in a cell incubator in 100 mm dishes with antibiotic-free Dulbecco's modified Eagle's medium containing 10% fetal bovine serum. Cells were transfected at ˜85% confluency with […] cDNA using TransIT-2020 reagent (Mirus Bio, Madison, Wisconsin). After approximately 48 hours, cell membrane was collected via centrifugation. For all experiments, serotonin (5-HT) hydrochloride was used as a positive control, and mianserin hydrochloride (10 μM) was used to define non-specific binding. Each cell membrane homogenate expressing 5-HT2A receptors was incubated in 96-well plates with [^3H]Ketanserin (PerkinElmer, Waltham, Massachusetts), ˜1.6 nM (its Kd at human 5-HT2A receptors), in the absence or presence of test compounds in a buffer. Following equilibration, each sample was filtered rapidly under vacuum through fiberglass filters presoaked in a buffer and rinsed several times with an ice-cold buffer using a cell harvester. Filters were soaked with scintillation fluid, and counts per minute were detected using photodetectors. IC50 values were computed using nonlinear, least squares regression analyses and then converted to Ki values using the Cheng-Prusoff equation (GraphPad Prism 9.0, San Diego, California).

[2] = molecular target: T2, serotonin 5-HT2A receptor (Mus musculus, UniProt P35363); assay: head-twitch response (HTR); type: in vivo, C57Bl/6J mice; settings: for HTR compared to DOI (positive control, 1 mg/kg) / HTR compared to vehicle: HTRs counted for 15 minutes, adult male mice; for model fit of data (GraphPad Prism 9): FIG. 16 legend
T2 construct: tissue Jackson Laboratory; host or cells: living C57Bl/6J mice (whole animal, behavioural read-out)
Procedure: The HTR assay was performed in adult, male C57Bl/6J mice, procured from the Jackson Laboratory (Bar Harbor, Maine), as previously described (Canal, C. E., and Morgan, D., 2012, Head-twitch response in rodents induced by the hallucinogen 2,5-dimethoxy-4-iodoamphetamine: a comprehensive history, a re-evaluation of mechanisms, and its utility as a model, Drug Test Anal 4, 556-576; Saraf, T. S., Felsing, D. E., Armstrong, J. L., Booth, R. G., and Canal, C. E., 2021, Evaluation of lorcaserin as an anticonvulsant in juvenile Fmr1 knockout mice, Epilepsy Res 175, 106677). Mice were housed in standard laboratory cages with ad libitum access to food and water, and were acclimated to the vivarium for at least one week prior to testing in a procedure room. On the day of testing, mice were acclimated to the procedure room in their home cages for ≥60 mi before administration of test compounds. Mice were injected subcutaneously, placed immediately thereafter in a clear, polycarbonate box (46×20×20 cm), and HTRs were counted for 15 consecutive minutes, using hand-held tally counters, by two trained observers who were blind to treatment.

[3] = in vitro liver metabolism (metabolic stability); type: in vitro ADME; settings: rat liver microsomes, NADPH regenerating system, 0 to 60 min
Procedure: In Vitro Liver Metabolism and Kinetic Deuterium Isotope Effects Compounds (10 μl of 2 μM solution) are incubated in 200 μl of medium that contains […] rat liver microsomes, NADPH regenerating system (1 mM NADP, 1 unit/ml of isocitrate dehydrogenase, 5 mM isocitric acid, 5 mM magnesium chloride), and 25 mM of phosphate buffer (pH 7.4). The reaction is terminated at different time points (0 to 60 min) by the addition of 300 μl of acetonitrile. For the analyses of products, the precipitated salts and proteins are spun out on a centrifuge, the residual solution diluted with 300 μl of water and injected into the LC/MS (Agilent 1200 system interfaced with an ABS Sciex 4000 QTRAP LC/MS/MS Mass Spectrometer). The metabolic stability may be estimated by evaluating the rate of disappearance of the main parent peak.

[4] = cited from earlier work

T1 sequence (P28223 whole entry): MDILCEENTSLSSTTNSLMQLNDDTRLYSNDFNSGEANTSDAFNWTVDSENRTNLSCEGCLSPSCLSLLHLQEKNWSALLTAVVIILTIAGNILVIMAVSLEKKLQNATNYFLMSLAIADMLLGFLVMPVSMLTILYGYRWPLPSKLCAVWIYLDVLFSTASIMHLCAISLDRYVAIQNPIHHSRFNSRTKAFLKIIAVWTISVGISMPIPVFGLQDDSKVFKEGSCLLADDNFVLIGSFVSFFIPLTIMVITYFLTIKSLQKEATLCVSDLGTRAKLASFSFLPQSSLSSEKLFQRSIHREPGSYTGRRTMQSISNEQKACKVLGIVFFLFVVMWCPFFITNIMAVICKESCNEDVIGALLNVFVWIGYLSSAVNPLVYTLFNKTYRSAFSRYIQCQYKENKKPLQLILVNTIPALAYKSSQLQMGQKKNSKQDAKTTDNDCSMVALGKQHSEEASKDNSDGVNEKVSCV
T2 sequence (P35363 whole entry): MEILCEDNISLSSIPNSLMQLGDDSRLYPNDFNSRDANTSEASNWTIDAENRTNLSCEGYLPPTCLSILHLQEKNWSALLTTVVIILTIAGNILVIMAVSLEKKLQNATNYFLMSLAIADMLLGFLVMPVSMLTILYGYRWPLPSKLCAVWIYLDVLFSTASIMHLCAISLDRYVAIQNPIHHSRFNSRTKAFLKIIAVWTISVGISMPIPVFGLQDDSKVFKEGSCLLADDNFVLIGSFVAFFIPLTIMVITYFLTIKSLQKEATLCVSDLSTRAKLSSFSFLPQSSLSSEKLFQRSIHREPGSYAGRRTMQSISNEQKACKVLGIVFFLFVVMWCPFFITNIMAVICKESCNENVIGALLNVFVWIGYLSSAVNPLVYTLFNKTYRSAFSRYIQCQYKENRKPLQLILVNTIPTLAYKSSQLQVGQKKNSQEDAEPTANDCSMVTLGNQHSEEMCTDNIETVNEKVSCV

Structure (SMILES)	activity at serotonin 5-HT2A receptors (FIG. 17) [1]	difference in affinity between deuterated and non-deuterated compounds [1]	effect of deuteration of the 2,5-methoxy groups on HTR (versus Compound I-1) ([2]; 3 mg/kg, subcutaneous, 15 minutes)	HTR compared to DOI (positive control, 1 mg/kg) ([2]; 3 mg/kg, subcutaneous)	HTR compared to vehicle ([2]; 3 mg/kg, subcutaneous)	model fit of data (GraphPad Prism 9) [2]	half life longer than Reference Compound 2 (2C—B) [3] [%]	activity after oral administration [4]
[2H]C([2H])([2H])Oc1cc(SC(F)(F)F)c(OC([2H])([2H])[2H])cc1CCN [Compound II-10, 2-(2,5-bis(methoxy-d3)-4-((trifluoromethyl)thio)phenyl)ethan-1-amine]	pronounced agonists	no significant differences in affinity	increased the HTR response	not statistically different from DOI	statistically different from vehicle	fit best to a two-site model		
COc1cc(SC(F)(F)F)c(OC)cc1CCN [Compound I-1, 2-(2,5-dimethoxy-4-((trifluoromethyl)thio)phenyl)ethan-1-amine]	pronounced agonists	no significant differences in affinity		not statistically different from DOI	statistically different from vehicle	fit best to a two-site model		
[2H]C([2H])([2H])Oc1cc(C([2H])([2H])C([2H])([2H])N)c(OC([2H])([2H])[2H])cc1Br [Compound II-14, 2-(4-bromo-2,5-bis(methoxy-d3)phenyl)ethan-1,1,2,2-d4-1-amine]							50	
COc1cc(OC)c(OC)cc1CCN [2C—O]								inactive

Reference: US12122741B2, “Therapeutic phenethylamine compositions and methods of use” (CYBIN IRL LIMITED, priority 2020, dated 2024)
